Assays:
L. donovani = tested on: L. donovani; design: method as in https://pubchem.ncbi.nlm.nih.gov/compound/91800813; conditions: ref https://pubchem.ncbi.nlm.nih.gov/compound/91800813; cited from earlier work
[1] = biological target: T. cruzi sterol 14-α demethylase (CYP51); design: method as in https://pubchem.ncbi.nlm.nih.gov/compound/91800813; conditions: ref https://pubchem.ncbi.nlm.nih.gov/compound/91800813; cited from earlier work
Purified rabbit lung ACE = biological target: T1, Purified rabbit lung ACE (Oryctolagus cuniculus, UniProt P12822); test: ACE assay with Abz-FRK(Dnp)P-OH, dose-response; type: biochemical; conditions: dose-response 7,5 pM to 62,5 μM
T1 construct: Purified rabbit lung ACE (EC 3.4.15.1) was purchased from Sigma-Aldrich; purchased Sigma-Aldrich; host or cells: rabbit lung tissue
T1 sequence (P12822 34-1310): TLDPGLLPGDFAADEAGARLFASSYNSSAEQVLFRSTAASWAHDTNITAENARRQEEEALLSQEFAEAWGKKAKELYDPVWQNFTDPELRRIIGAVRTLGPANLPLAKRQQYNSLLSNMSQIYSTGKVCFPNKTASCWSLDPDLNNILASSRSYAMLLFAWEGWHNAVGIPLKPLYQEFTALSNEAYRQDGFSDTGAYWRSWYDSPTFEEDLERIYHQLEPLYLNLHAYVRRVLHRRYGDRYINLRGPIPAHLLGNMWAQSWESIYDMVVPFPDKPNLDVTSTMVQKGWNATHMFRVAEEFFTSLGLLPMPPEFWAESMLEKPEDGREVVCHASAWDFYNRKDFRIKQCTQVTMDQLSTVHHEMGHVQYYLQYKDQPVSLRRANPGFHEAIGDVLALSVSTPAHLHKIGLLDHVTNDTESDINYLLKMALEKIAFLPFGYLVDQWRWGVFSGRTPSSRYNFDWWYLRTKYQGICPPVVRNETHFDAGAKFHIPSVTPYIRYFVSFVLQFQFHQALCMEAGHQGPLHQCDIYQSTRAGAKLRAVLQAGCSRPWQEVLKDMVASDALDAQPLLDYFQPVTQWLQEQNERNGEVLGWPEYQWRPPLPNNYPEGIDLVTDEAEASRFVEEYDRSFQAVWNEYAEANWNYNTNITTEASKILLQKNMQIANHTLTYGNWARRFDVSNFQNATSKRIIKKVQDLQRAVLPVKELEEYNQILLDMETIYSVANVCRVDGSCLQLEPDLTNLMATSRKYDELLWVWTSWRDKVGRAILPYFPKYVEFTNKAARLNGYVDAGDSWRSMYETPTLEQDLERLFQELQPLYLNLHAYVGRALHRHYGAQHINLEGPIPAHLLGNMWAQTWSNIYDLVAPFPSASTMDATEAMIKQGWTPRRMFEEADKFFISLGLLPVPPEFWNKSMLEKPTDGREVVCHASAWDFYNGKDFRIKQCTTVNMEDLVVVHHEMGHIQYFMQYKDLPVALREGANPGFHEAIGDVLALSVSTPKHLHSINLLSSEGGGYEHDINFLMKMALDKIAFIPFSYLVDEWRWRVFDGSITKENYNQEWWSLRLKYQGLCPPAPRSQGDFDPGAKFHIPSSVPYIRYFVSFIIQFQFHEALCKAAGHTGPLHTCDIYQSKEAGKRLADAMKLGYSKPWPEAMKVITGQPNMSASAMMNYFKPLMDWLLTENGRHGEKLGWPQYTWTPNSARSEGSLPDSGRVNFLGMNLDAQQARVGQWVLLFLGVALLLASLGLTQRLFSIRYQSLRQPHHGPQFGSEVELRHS
Experimental: Because M32 MCPs show a strong topological similarity with ACE [22], we chose this enzyme to estimate the IC50 value for each molecule.
(A) Purified rabbit lung ACE was assayed at 37°C in 0,1 M Tris-HCl pH 7,0 buffer containing 50 mM NaCl, 10 mM ZnCl2 and 0,01% Triton X-100. […] NI, no inhibitor added. […] In all cases, solid lines represent the best fit of four-parameter Hill equation to experimental data (closed circles).
Purified rabbit lung ACE (EC 3.4.15.1) was purchased from Sigma-Aldrich. Enzyme activity was assayed fluorimetrically with Abz-FRK(Dnp)P-OH (ex/em = 320/420 nm) as substrate in buffer 0,1 M Tris-HCl, 50 mM NaCl, 10 mM ZnCl2, pH 7.0 containing 0,01% Triton X-100 as indicated in [23].

NIH 3T3 = tested on: NIH 3T3; design: method as in https://pubchem.ncbi.nlm.nih.gov/compound/91800813; conditions: ref https://pubchem.ncbi.nlm.nih.gov/compound/91800813, read-out: cytotoxicity IC50; cited from earlier work
cruzipain = tested on: cruzipain; design: method as in PMID 28935948; conditions: at 25 μM; cited from earlier work
T. brucei = tested on: T. brucei; design: method as in https://pubchem.ncbi.nlm.nih.gov/compound/91800813; conditions: ref https://pubchem.ncbi.nlm.nih.gov/compound/91800813; cited from earlier work

N#Cc1ccc(S(=O)(=O)N2CCN(Cc3cccc(-c4ccncc4)c3)CC2)cc1 [TCMDC-143620]
activity on L. donovani (L. donovani): moderate but measurable activity
IC50 [1]: 0.079 µM
ACE inhibition (Purified rabbit lung ACE): inactive
IC50 (NIH 3T3): 13 µM
cruzipain inhibition (cruzipain): ~ 7,5%
activity on T. brucei (T. brucei): moderate but measurable activity

Source: paper PMC6675120, “Potent and selective inhibitors for M32 metallocarboxypeptidases identified from high-throughput screening of anti-kinetoplastid chemical boxes” (PLoS Neglected Tropical Diseases, 2019)
